Laboratory results taken from article PMC8360061, “Search for the Active Ingredients from a 2‐Aminothiazole DMSO Stock Solution with Antimalarial Activity” (Chemmedchem, 2021).
Read-outs that look alike come from different tables or passages of the source.

How the values were obtained:
PfIspE = PfIspE (Plasmodium falciparum, UniProt Q8I470); assay: PfIspE enzymatic assay (coupled to PK/LDH, NADH oxidation at 340 nm); type: biochemical
Description: (§1) Firstly, we performed a temperature‐dependent decomposition study of compound 1 at 10 mM concentration in DMSO at room temperature (RT), +4 °C and −20 °C (SI, Section 2.3). […] Besides visual inspection of the colour changes of the test sample (see Table 2), the decomposition was monitored by HRMS and NMR spectroscopy. […] Furthermore, all three samples were tested for their inhibitory activity against PfIspE after the incubation period. […] In the IspE assay, the activity of the target enzyme is coupled to the oxidation of NADH (which can be followed spectrophotometrically at 340 nm) via a cascade of the auxiliary enzymes pyruvate kinase and lactate dehydrogenase (PK/LDH).[10] […] Three samples of compound 1 were tested in PK/LDH assay (Table 2).
(§2) Another approach to address this issue is to perform the IspE assay with one or several orthologues of PfIspE. […] The IspE assay setup was identical for both Pf and EcIspE orthologs except for the target enzyme used. One of the setup requirements was that the enzymatic activity of the auxiliary enzymes PK/LDH exceeded the activity of the target enzyme IspE not less than a factor of ten.[10] We investigated, if the inhibition of the auxiliary enzymes may substantially influence the IC50 values obtained from the coupled IspE assay.
(§3) 1.1 General Procedure for Enzymatic Assay
(§4) The cloning, expression and purification of Plasmodium falciparum[1] and Escherichia coli[2,3] and their subsequent assays followed the previously reported procedures .[1] In some specified cases, the tested compound was dissolved in methanol or acetonitrile for the assay .
(§5) Due to the nature of the study, some decomposition samples w ere only tested once and thus, for some formal standard error, […]
(§6) For the final purified compounds, replicates were measured and standard deviation was calculated at least from two replicates. […]
(§7) 2.) Decomposition Study Procedure
(§8) All reagents and solvents were of commercial quality and used without further purification.

[1] = test system: Plasmodium falciparum drug-sensitive NF54; assay: Antimalarial assay, [3H]hypoxanthine incorporation; type: cell-based; conditions: for IC50: Plasmodium falciparum, read-out: PfNF54 IC50
Description: as §5
For the final purified compounds, replicates were measured and standard deviation was calculated at least from two replicates.
1.2 General Procedure for Antimalarial Assay
Plasmodium falciparum drug-sensitive NF54 (airport strain from The Netherlands, provided by F. Hoffmann-La Roche Ltd) was cultivated in a variation of the medium consisting of RPMI 1640 supplemented with 0.5% ALBUMAX® II, 25 mM Hepes, 25 mM NaHCO3 (pH 7.3), 0.36 mM hypoxanthine, and 100 μg/mL neomycin, as previously described.[4,5] Human erythrocytes served as host cells.
Cultures were maintained in an atmosphere of 3% O2, 4% CO2, and 93% N2 in humidified modular chambers at 37 °C. Compounds were dissolved in MeOH (10 mM), diluted in hypoxanthine-free culture medium and titrated in duplicates over a 64-fold range in 96 well plates. Infected erythrocytes (1.25% final hematocrit and 0.3% final parasitemia) were added into the wells. After 48 h incubation, 0.25 μCi of [3H]hypoxanthine was added per well and plates were incubated for an additional 24 h. Parasites were harvested onto glass-fiber filters and radioactivity was counted using a Betaplate liquid scintillation counter (Wallac, Zurich). Chloroquine […]
The results were recorded and expressed as a percentage of the untreated controls. Fifty percent inhibitory concentrations (IC50) were estimated by linear interpolation.[6] […]

EcIspE = target: T1, EcIspE (Escherichia coli, UniProt P62615); assay: EcIspE enzymatic assay (coupled to PK/LDH); type: biochemical
T1 construct: made in house
From the text: as §2, §3, §4, §5, §6, §7, §8
Low resolution mass analytics and purity controls were carried out using an Ultimate 3000-ISQ liquid-chromatography mass spectrometry (LCMS) system (Thermo Fisher […]

[2] = target: PK/LDH (pyruvate kinase and lactate dehydrogenase); assay: PK/LDH auxiliary enzyme assay; type: biochemical
Description: as §1, §3, §4, §5, §6, §7, §8
Low resolution mass analytics and purity controls were carried out using an Ultimate 3000-ISQ liquid-chromatography mass spectrometry (LCMS) system (Thermo Fisher Scientific, Dreieich, Germany) consisting of a Dionex UltiMate pump, an autosampler, DAD detector and an ESI quadrupole mass spectrometer. NMR spectra were recorded on a Bruker AV 500 or Ascend 700 (1H, 500 MHz or 700 MHz; 13C, 126 MHz or 175 MHz; 19F, 470 MHz) spectrometer. All spectra were measured in DMSO -d6, methanol-d4, acetone-d6 or acetonitrile-d3 to which reported

HEK293 = assay: Cytotoxicity assay HEK293; type: cell-based; conditions: Homo sapiens, old sample before becoming aware of the decomposition, read-out: %-inh. HEK293
Description: as §5, §6
1.3 General Procedure for Cytotoxicity Assay
Cytotoxicity assays based on the human lung adenocarcinoma (A549), human embryonic kidney (Hek293) and human hepatocellular carcinoma (HepG2) cell lines were performed as described previously.[7] […]

[3] = 10 mM DMSO stock stored at +4 °C, measured after 3 months
[4] = 10 mM DMSO stock stored at RT, measured after 3 months
[5] = 10 mM DMSO stock stored at −20 °C, measured after 3 months
[6] = 10 mM stock in DMSO at RT, 7 days of incubation
[7] = 10 mM stock in DMSO at RT, 9 days of incubation
[8] = 10 mM stock in DMSO at RT, 12 days of incubation
[9] = 10 mM stock in DMSO at RT, 14 days of incubation
[10] = 10 mM stock in DMSO at RT, 16 days of incubation
[11] = analytical sample, DMSO at RT, 0 days of incubation, dissolved in methanol shortly before the assay
[12] = analytical sample, DMSO at RT, 1 day of incubation, dissolved in methanol shortly before the assay
[13] = analytical sample, DMSO at RT, 2 days of incubation, dissolved in methanol shortly before the assay
[14] = analytical sample, DMSO at RT, 3 days of incubation, dissolved in methanol shortly before the assay
[15] = analytical sample, DMSO at RT, 4 days of incubation, dissolved in methanol shortly before the assay
[16] = fresh batch, freshly prepared stock solution
[17] = old decomposed sample, control run at the same time as the temperature study

T1 sequence (P62615 whole entry): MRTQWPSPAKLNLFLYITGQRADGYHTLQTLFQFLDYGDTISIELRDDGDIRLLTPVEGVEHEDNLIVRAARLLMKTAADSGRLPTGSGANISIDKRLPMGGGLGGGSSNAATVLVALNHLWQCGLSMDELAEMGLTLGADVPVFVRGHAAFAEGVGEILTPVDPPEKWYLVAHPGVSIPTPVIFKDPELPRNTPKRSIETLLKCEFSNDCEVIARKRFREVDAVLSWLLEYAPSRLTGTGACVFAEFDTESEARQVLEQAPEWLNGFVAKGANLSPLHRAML
Chain of PfIspE (Q8I470 entry or part of it): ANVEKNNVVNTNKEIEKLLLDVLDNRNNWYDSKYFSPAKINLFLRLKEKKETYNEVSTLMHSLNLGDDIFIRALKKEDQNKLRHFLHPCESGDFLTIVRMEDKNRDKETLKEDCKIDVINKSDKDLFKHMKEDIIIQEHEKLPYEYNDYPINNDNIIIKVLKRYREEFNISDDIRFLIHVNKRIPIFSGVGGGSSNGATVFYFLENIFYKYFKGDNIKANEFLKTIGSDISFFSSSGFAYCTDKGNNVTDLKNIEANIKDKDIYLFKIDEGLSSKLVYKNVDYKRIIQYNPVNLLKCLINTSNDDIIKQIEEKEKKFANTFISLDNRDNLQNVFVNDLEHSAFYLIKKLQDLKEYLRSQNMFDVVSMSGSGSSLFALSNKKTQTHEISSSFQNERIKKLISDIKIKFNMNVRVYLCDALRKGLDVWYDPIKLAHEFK

## CCn1c(C)cc(-c2csc(Nc3ccccc3C(F)(F)F)n2)c1C [Compound 1]
PfIspE; [3]
  IC50: 16 ± 7 µM
PfIspE; [4]
  IC50: 12 ± 4 µM
PfIspE; [5]
  IC50: > 500 µM
PfIspE; 10 mM stock in ACN at RT, 0 days of incubation
  IC50: > 500 µM
PfIspE; 10 mM stock in ACN at RT, 5 days of incubation
  IC50: > 500 µM
PfIspE; 10 mM stock in ACN at RT, 7 days of incubation
  IC50: > 500 µM
PfIspE; 10 mM stock in ACN at RT, 9 days of incubation
  IC50: > 500 µM
PfIspE; 10 mM stock in ACN at RT, 12 days of incubation
  IC50: > 500 µM
PfIspE; 10 mM stock in ACN at RT, 14 days of incubation
  IC50: > 500 µM
PfIspE; 10 mM stock in ACN at RT, 16 days of incubation
  IC50: > 500 µM
PfIspE; 10 mM stock in DMSO at RT, 0 days of incubation
  IC50: > 500 µM
PfIspE; 10 mM stock in DMSO at RT, 5 days of incubation
  IC50: 19 ± 7 µM
PfIspE; [6]
  IC50: 24 ± 9 µM
PfIspE; [7]
  IC50: 10 ± 4 µM
PfIspE; [8]
  IC50: 1 ± 1 µM
PfIspE; [9]
  IC50: 10 ± 4 µM
PfIspE; [10]
  IC50: 11 ± 4 µM
PfIspE; 10 mM stock in MeOH at RT, 0 days of incubation
  IC50: > 500 µM
PfIspE; 10 mM stock in MeOH at RT, 5 days of incubation
  IC50: > 500 µM
PfIspE; 10 mM stock in MeOH at RT, 7 days of incubation
  IC50: > 500 µM
PfIspE; 10 mM stock in MeOH at RT, 9 days of incubation
  IC50: > 500 µM
PfIspE; 10 mM stock in MeOH at RT, 12 days of incubation
  IC50: > 500 µM
PfIspE; 10 mM stock in MeOH at RT, 14 days of incubation
  IC50: > 500 µM
PfIspE; 10 mM stock in MeOH at RT, 16 days of incubation
  IC50: > 500 µM
PfIspE; [11]
  IC50: > 500 µM
PfIspE; [12]
  IC50: > 500 µM
PfIspE; [13]
  IC50: > 500 µM
PfIspE; [14]
  IC50: 486 ± 20 µM
PfIspE; [15]
  IC50: 99 ± 23 µM
PfIspE; fractions of second purification (DMSO, RT, five days), dissolved in ACN
  IC50: > 1370 µM
PfIspE; fractions of second purification (DMSO, RT, five days), dissolved in MeOH
  IC50: > 1370 µM
PfIspE; [16]
  IC50: > 500 µM
  PfIspE IC50: no activity
PfIspE; freshly dissolved compound, in methanol shortly before the assay (Table 4 footnote b)
  IC50: > 500 µM
PfIspE; old batch (decomposed DMSO stock)
  IC50: 8 ± 2.8 µM
PfIspE; [17]
  IC50: 10 ± 3 µM
[1]; NF54, 48 h, analytical sample, DMSO at RT, 2 days of incubation, dissolved in methanol shortly before the assay
  IC50: 3.5 ± 0.3 µM
[1]; NF54, 96 h, analytical sample, DMSO at RT, 4 days of incubation, dissolved in methanol shortly before the assay
  IC50: 2.7 ± 0.3 µM
[1]; NF54, fresh batch
  IC50: 7.3 ± 0.8 µM
[1]; NF54, old batch (decomposed DMSO stock)
  IC50: 0.43 ± 0.01 µM
[1]; fresh batch compared with old decomposed batch
  reduction in activity against PfNF54, fresh batch vs old batch: 17 fold
EcIspE; [3]
  IC50: 71 ± 10 µM
EcIspE; [4]
  IC50: 101 ± 14 µM
EcIspE; [5]
  IC50: > 500 µM
EcIspE; [11]
  IC50: > 500 µM
EcIspE; [12]
  IC50: > 500 µM
EcIspE; [13]
  IC50: > 500 µM
EcIspE; [14]
  IC50: 397 µM
EcIspE; [15]
  IC50: 75 ± 16 µM
EcIspE; fractions of second purification, dissolved in ACN
  IC50: > 1370 µM
EcIspE; fractions of second purification, dissolved in MeOH
  IC50: > 1370 µM
EcIspE; [17]
  IC50: 32 ± 6 µM
[2]; [3]
  IC50: 45 ± 6 µM
[2]; [4]
  IC50: 34 ± 4 µM
[2]; [6]
  IC50: 48 ± 16 µM
[2]; [7]
  IC50: 57 ± 22 µM
[2]; [8]
  IC50: 2 ± 1 µM
[2]; [9]
  IC50: 50 ± 11 µM
[2]; [10]
  IC50: 86 ± 17 µM
[2]; [15]
  IC50: 95 ± 21 µM
[2]; [17]
  IC50: 40 ± 4 µM
HEK293
  inhibition at 100 µM: 28%
